Numbered stars: 1 amine (or outer) side, 2 acyl side, 3 side chain; on linkers, the order of the positions; unused ones are H or OH. Bridge positions count the residues as written; N and C are the ends. Square brackets hold non-standard residues; d marks the D form. Peptide text beside a SMILES is read from it. * marks the point of attachment. Ala(imidazo(1,2-a)pyr3yl) = N[C@@H](Cc1cnc2ccccn12)C(=O)O; Trp(1-CH2COOH) = N[C@@H](Cc1cn(CC(=O)O)c2ccccc12)C(=O)O; NMePhe(4-COOH) = CN[C@@H](Cc1ccc(C(=O)O)cc1)C(=O)O; X7 = CN([C@@H](Cc1cccc(C(=O)O)c1)C(=O)[*:2])[*:1]; Nle(6-morpholino) = N[C@@H](CCCCN1CCOCC1)C(=O)O; X2 = O=C([C@H](Cc1cn(CCO)c2ccccc12)N[*:1])[*:2]; Phe(3-COOH) = N[C@@H](Cc1cccc(C(=O)O)c1)C(=O)O; Tyr(2,6-F2) = N[C@@H](Cc1c(F)cc(O)cc1F)C(=O)O; NMePhe(3-Cl) = CN[C@@H](Cc1cccc(Cl)c1)C(=O)O; Trp(1-Me) = Cn1cc(C[C@H](N)C(=O)O)c2ccccc21; 3Pal(6-OMe) = COc1ccc(C[C@H](N)C(=O)O)cn1; 3Pal(6-NH2) = Nc1ccc(C[C@H](N)C(=O)O)cn1; Tyr(3-Me) = Cc1cc(C[C@H](N)C(=O)O)ccc1O; NMeY = CN[C@@H](Cc1ccc(O)cc1)C(=O)O; Nva(3-Et) = CCC(CC)[C@H](N)C(=O)O; PEG4 = NCCOCCOCCOCCOCCC(=O)O; Carboxymethyl = O=C(O)C*
Tests used:
Format in all cases: binding
[1] = target: T1, human transferrin receptor (hTfR) (Homo sapiens, UniProt P02786); assay: Evaluation of pH dependence (ratio of SPR koff or KD at pH 6.0 to pH 7.4); settings: ratio of koff at pH 6.0 to pH 7.4
Experimental: The ratio of the calculated koff or KD values under pH 6.0 conditions to those under pH 7.4 conditions was calculated to check pH dependency.

[2] = target: T1, human transferrin receptor (hTfR); assay: SPR measurement under pH 6.0 conditions (Biacore T200, NTA chip, immobilized hTfR); settings: SPR, pH 6.0; read-out: hTfR SPR pH6.0 KD
[3] = target: T1, human transferrin receptor (hTfR); assay: SPR measurement under pH 7.4 conditions (Biacore T200, CM3 chip, hTfR captured by His Tag antibody); settings: SPR, pH 7.4; read-out: hTfR SPR pH7.4 KD

T1 sequence (P02786 whole entry): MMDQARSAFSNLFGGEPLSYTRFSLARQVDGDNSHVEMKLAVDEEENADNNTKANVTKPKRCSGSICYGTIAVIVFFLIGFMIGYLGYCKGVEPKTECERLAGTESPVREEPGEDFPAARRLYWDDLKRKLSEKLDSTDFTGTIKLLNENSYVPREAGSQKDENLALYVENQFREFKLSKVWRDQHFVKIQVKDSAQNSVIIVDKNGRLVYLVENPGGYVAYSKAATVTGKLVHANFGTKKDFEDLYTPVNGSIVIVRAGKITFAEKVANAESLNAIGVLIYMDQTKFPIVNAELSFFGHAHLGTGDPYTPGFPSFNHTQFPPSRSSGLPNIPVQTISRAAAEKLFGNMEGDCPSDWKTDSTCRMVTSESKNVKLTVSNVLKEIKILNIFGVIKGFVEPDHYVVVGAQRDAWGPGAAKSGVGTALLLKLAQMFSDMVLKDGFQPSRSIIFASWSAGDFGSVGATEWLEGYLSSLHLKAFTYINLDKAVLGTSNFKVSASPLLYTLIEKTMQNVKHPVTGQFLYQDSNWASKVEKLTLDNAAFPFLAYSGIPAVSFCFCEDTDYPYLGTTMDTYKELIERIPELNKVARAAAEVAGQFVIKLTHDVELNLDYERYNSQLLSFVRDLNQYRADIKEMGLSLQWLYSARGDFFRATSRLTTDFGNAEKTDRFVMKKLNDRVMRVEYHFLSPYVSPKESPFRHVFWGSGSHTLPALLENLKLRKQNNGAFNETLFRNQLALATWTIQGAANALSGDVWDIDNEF

SMILES	dependency koff pH6.0/7.4 [1]	Kd [2] [nM]	Kd [3] [nM]
CCC(CC)[C@@H]1NC(=O)[C@H](Cc2ccc(OCC(=O)O)cc2)NC(=O)[C@H](Cc2ccc(N)nc2)NC(=O)[C@H](CC(N)=O)NC(=O)[C@H](Cc2cn(CC(=O)O)c3ccccc23)NC(=O)[C@H](C(C)C)NC(=O)[C@H](Cc2cccc(Cl)c2)N(C)C(=O)[C@H](C(C)C)NC(=O)[C@H](C)NC(=O)CSC[C@@H](C(=O)NCCOCCOCCOCCOCCC(N)=O)NC(=O)[C@H](Cc2ccc(O)cc2)N(C)C(=O)[C@H](Cc2cccc(C(=O)O)c2)NC(=O)[C@H](CCCCN2CCOCC2)NC(=O)[C@H](CCCCN2CCOCC2)NC(=O)[C@H]([C@@H](C)CC)NC1=O [compound 83] ({CH2CO}-AV[NMePhe(3-Cl)]V[Trp(1-CH2COOH)]N[3Pal(6-NH2)]Y(Carboxymethyl)[Nva(3-Et)]I[Nle(6-morpholino)][Nle(6-morpholino)][Phe(3-COOH)][NMeY]C[PEG4]-NH2; thioether N-15)	32.62	144	43.7
CC[C@H](C)[C@@H]1NC(=O)[C@H](Cc2ccc(OC)cc2)NC(=O)[C@H](Cc2ccc(O)cc2)NC(=O)[C@H](CC(N)=O)NC(=O)[C@H](Cc2c[nH]c3ccccc23)NC(=O)[C@H](C(C)C)NC(=O)[C@H](Cc2cccc(Cl)c2)N(C)C(=O)[C@H](C(C)C)NC(=O)[C@H](C)NC(=O)CSC[C@@H](C(=O)NCCOCCOCCOCCOCCC(N)=O)NC(=O)[C@H](Cc2ccc(C(=O)O)cc2)N(C)C(=O)[C@H](Cc2cccc(C(=O)O)c2)NC(=O)[C@H](CCCNC(=N)N)NC(=O)[C@H](CCC(N)=O)NC(=O)[C@H]([C@@H](C)CC)NC1=O [compound 80] ({CH2CO}-AV[NMePhe(3-Cl)]VWNYY(Me)IIQR[Phe(3-COOH)][NMePhe(4-COOH)]C[PEG4]-NH2; thioether N-15)	22.20	–	–
CC[C@H](C)[C@@H]1NC(=O)[C@H](Cc2ccc(OCC(=O)O)cc2)NC(=O)[C@H](Cc2c(F)cc(O)cc2F)NC(=O)[C@H](CC(N)=O)NC(=O)[C@H](Cc2cn(CC(=O)O)c3ccccc23)NC(=O)[C@H](C(C)C)NC(=O)[C@H](Cc2cccc(Cl)c2)N(C)C(=O)[C@H](C(C)C)NC(=O)[C@H](C)NC(=O)CSC[C@@H](C(=O)NCCOCCOCCOCCOCCC(N)=O)NC(=O)[C@H](Cc2ccc(O)cc2)N(C)C(=O)[C@H](Cc2cccc(C(=O)O)c2)NC(=O)[C@H](CCCNC(=N)N)NC(=O)[C@H](CCC(N)=O)NC(=O)[C@H]([C@@H](C)CC)NC1=O [compound 78] ({CH2CO}-AV[NMePhe(3-Cl)]V[Trp(1-CH2COOH)]N[Tyr(2,6-F2)]Y(Carboxymethyl)IIQR[Phe(3-COOH)][NMeY]C[PEG4]-NH2; thioether N-15)	4.38	–	–
CC[C@H](C)[C@@H]1NC(=O)[C@H](Cc2ccc(OCC(=O)O)cc2)NC(=O)[C@H](Cc2ccc(O)cc2)NC(=O)[C@H](CC(N)=O)NC(=O)[C@H](Cc2cn(CCO)c3ccccc23)NC(=O)[C@H](C(C)C)NC(=O)[C@H](Cc2cccc(Cl)c2)N(C)C(=O)[C@H](C(C)C)NC(=O)[C@H](C)NC(=O)CSC[C@@H](C(=O)NCCOCCOCCOCCOCCC(N)=O)NC(=O)[C@H](Cc2ccc(O)cc2)N(C)C(=O)[C@H](Cc2cccc(C(=O)O)c2)NC(=O)[C@H](CCCNC(=N)N)NC(=O)[C@H](CCC(N)=O)NC(=O)[C@H]([C@@H](C)CC)NC1=O [compound 73]	7.54	4.78	1.85
CC[C@H](C)[C@@H]1NC(=O)[C@H](Cc2ccc(OCC(=O)O)cc2)NC(=O)[C@H](Cc2ccc(O)cc2)NC(=O)[C@H](CC(N)=O)NC(=O)[C@H](Cc2cn(C)c3ccccc23)NC(=O)[C@H](C(C)C)NC(=O)[C@H](Cc2cccc(Cl)c2)N(C)C(=O)[C@H](C(C)C)NC(=O)[C@H](C)NC(=O)CSC[C@@H](C(=O)NCCOCCOCCOCCOCCC(N)=O)NC(=O)[C@H](Cc2ccc(O)cc2)N(C)C(=O)[C@H](Cc2cccc(C(=O)O)c2)NC(=O)[C@H](CCCNC(=N)N)NC(=O)[C@H](CCC(N)=O)NC(=O)[C@H]([C@@H](C)CC)NC1=O [compound 79] ({CH2CO}-AV[NMePhe(3-Cl)]V[Trp(1-Me)]NYY(Carboxymethyl)IIQR[Phe(3-COOH)][NMeY]C[PEG4]-NH2; thioether N-15)	5.31	–	–
CCC(CC)[C@@H]1NC(=O)[C@H](Cc2ccc(OCC(=O)O)cc2)NC(=O)[C@H](Cc2ccc(O)c(C)c2)NC(=O)[C@H](CC(N)=O)NC(=O)[C@H](Cc2cn(CC(=O)O)c3ccccc23)NC(=O)[C@H](C(C)C)NC(=O)[C@H](Cc2cccc(Cl)c2)N(C)C(=O)[C@H](C(C)C)NC(=O)[C@H](C)NC(=O)CSC[C@@H](C(=O)NCCOCCOCCOCCOCCC(N)=O)NC(=O)[C@H](Cc2ccc(O)cc2)N(C)C(=O)[C@H](Cc2cccc(C(=O)O)c2)NC(=O)[C@H](CCCNC(=N)N)NC(=O)[C@H](CCC(N)=O)NC(=O)[C@H]([C@@H](C)CC)NC1=O [compound 89] ({CH2CO}-AV[NMePhe(3-Cl)]V[Trp(1-CH2COOH)]N[Tyr(3-Me)]Y(Carboxymethyl)[Nva(3-Et)]IQR[Phe(3-COOH)][NMeY]C[PEG4]-NH2; thioether N-15)	8.08	–	–
CCC(CC)[C@@H]1NC(=O)[C@H](Cc2cnc3ccccn23)NC(=O)[C@H](Cc2ccc(O)cc2)NC(=O)[C@H](CC(N)=O)NC(=O)[C@H](Cc2cn(CC(=O)O)c3ccccc23)NC(=O)[C@H](C(C)C)NC(=O)[C@H](Cc2cccc(Cl)c2)N(C)C(=O)[C@H](C(C)C)NC(=O)[C@H](C)NC(=O)CSC[C@@H](C(=O)NCCOCCOCCOCCOCCC(N)=O)NC(=O)[C@H](Cc2ccc(O)cc2)N(C)C(=O)[C@H](Cc2cccc(C(=O)O)c2)NC(=O)[C@H](CCCNC(=N)N)NC(=O)[C@H](CCC(N)=O)NC(=O)[C@H]([C@@H](C)CC)NC1=O [compound 91] ({CH2CO}-AV[NMePhe(3-Cl)]V[Trp(1-CH2COOH)]NY[Ala(imidazo(1,2-a)pyr3yl)][Nva(3-Et)]IQR[Phe(3-COOH)][NMeY]C[PEG4]-NH2; thioether N-15)	9.32	–	–
CCC(CC)[C@@H]1NC(=O)[C@H](Cc2ccc(OC)nc2)NC(=O)[C@H](Cc2ccc(O)cc2)NC(=O)[C@H](CC(N)=O)NC(=O)[C@H](Cc2cn(CC(=O)O)c3ccccc23)NC(=O)[C@H](C(C)C)NC(=O)[C@H](Cc2cccc(Cl)c2)N(C)C(=O)[C@H](C(C)C)NC(=O)[C@H](C)NC(=O)CSC[C@@H](C(=O)NCCOCCOCCOCCOCCC(N)=O)NC(=O)[C@H](Cc2ccc(O)cc2)N(C)C(=O)[C@H](Cc2cccc(C(=O)O)c2)NC(=O)[C@H](CCCNC(=N)N)NC(=O)[C@H](CCC(N)=O)NC(=O)[C@H]([C@@H](C)CC)NC1=O [compound 90] ({CH2CO}-AV[NMePhe(3-Cl)]V[Trp(1-CH2COOH)]NY[3Pal(6-OMe)][Nva(3-Et)]IQR[Phe(3-COOH)][NMeY]C[PEG4]-NH2; thioether N-15)	8.01	–	–
CC[C@H](C)[C@@H]1NC(=O)[C@H](Cc2ccc(OCC(=O)O)cc2)NC(=O)[C@H](Cc2ccc(O)cc2)NC(=O)[C@H](CC(N)=O)NC(=O)[C@H](Cc2cn(CCO)c3ccccc23)NC(=O)[C@H](C(C)C)NC(=O)[C@H](Cc2cccc(Cl)c2)N(C)C(=O)[C@H]([C@@H](C)O)NC(=O)[C@H](C)NC(=O)CSC[C@@H](C(=O)NCCOCCOCCOCCOCCC(N)=O)NC(=O)[C@H](Cc2ccc(O)cc2)N(C)C(=O)[C@H](Cc2cccc(C(=O)O)c2)NC(=O)[C@H](CCCNC(=N)N)NC(=O)[C@H](CCC(N)=O)NC(=O)[C@H]([C@@H](C)CC)NC1=O [compound 77] ({CH2CO}-AT[NMePhe(3-Cl)]V[X2]NYY(Carboxymethyl)IIQR[Phe(3-COOH)][NMeY]C[PEG4]-NH2; thioether N-15)	4.46	–	–
CCC(CC)[C@@H]1NC(=O)[C@H](Cc2ccc(OCC(=O)O)cc2)NC(=O)[C@H](Cc2ccc(N)nc2)NC(=O)[C@H](CC(N)=O)NC(=O)[C@H](Cc2cn(CC(=O)O)c3ccccc23)NC(=O)[C@H](C(C)C)NC(=O)[C@H](Cc2cccc(Cl)c2)N(C)C(=O)[C@H](C(C)C)NC(=O)[C@H](C)NC(=O)CSC[C@@H](C(=O)NCCOCCOCCOCCOCCC(N)=O)NC(=O)[C@H](Cc2ccc(C(=O)O)cc2)N(C)C(=O)[C@H](Cc2cccc(C(=O)O)c2)NC(=O)[C@H](CCCCN2CCOCC2)NC(=O)[C@H](CCCCN2CCOCC2)NC(=O)[C@H]([C@@H](C)CC)NC1=O [compound 86] ({CH2CO}-AV[NMePhe(3-Cl)]V[Trp(1-CH2COOH)]N[3Pal(6-NH2)]Y(Carboxymethyl)[Nva(3-Et)]I[Nle(6-morpholino)][Nle(6-morpholino)][Phe(3-COOH)][NMePhe(4-COOH)]C[PEG4]-NH2; thioether N-15)	28.16	–	–
CC[C@H](C)[C@@H]1NC(=O)[C@H](Cc2ccc(OCC(=O)O)cc2)NC(=O)[C@H](Cc2ccc(O)cc2)NC(=O)[C@H](CC(N)=O)NC(=O)[C@H](Cc2c[nH]c3ccccc23)NC(=O)[C@H](C(C)C)NC(=O)[C@H](Cc2cccc(Cl)c2)N(C)C(=O)[C@H](C(C)C)NC(=O)[C@H](C)NC(=O)CSC[C@@H](C(=O)NCCOCCOCCOCCOCCC(N)=O)NC(=O)[C@H](Cc2ccc(O)cc2)N(C)C(=O)[C@H](Cc2cccc(C(=O)O)c2)NC(=O)[C@H](CCCNC(=N)N)NC(=O)[C@H](CCC(N)=O)NC(=O)[C@H]([C@@H](C)CC)NC1=O [compound 72] ({CH2CO}-AV[NMePhe(3-Cl)]VWNYY(Carboxymethyl)IIQR[Phe(3-COOH)][NMeY]C[PEG4]-NH2; thioether N-15)	5.72	–	3.34
CC[C@H](C)[C@@H]1NC(=O)[C@H](Cc2ccc(OC)cc2)NC(=O)[C@H](Cc2ccc(O)cc2)NC(=O)[C@H](CC(N)=O)NC(=O)[C@H](Cc2c[nH]c3ccccc23)NC(=O)[C@H](C(C)C)NC(=O)[C@H](Cc2cccc(Cl)c2)N(C)C(=O)[C@H](C(C)C)NC(=O)[C@H](C)NC(=O)CSC[C@@H](C(=O)NCCOCCOCCOCCOCCC(N)=O)NC(=O)[C@H](Cc2cccc(C(=O)O)c2)N(C)C(=O)[C@H](Cc2cccc(C(=O)O)c2)NC(=O)[C@H](CCCNC(=N)N)NC(=O)[C@H](CCC(N)=O)NC(=O)[C@H]([C@@H](C)CC)NC1=O [compound 81] ({CH2CO}-AV[NMePhe(3-Cl)]VWNYY(Me)IIQR[Phe(3-COOH)][X7]C[PEG4]-NH2; thioether N-15)	13.49	–	–
